Measured values from patent US8304419B2, “Chemical compounds” (priority 2007, dated 2012).
Structures can show the parent of a compound that is named as a salt.

Tested on: HIV wild type (WTRVA)
Assay: HeLa cell assay, wild type virus (WTRVA)
Assay type: cell-based, HIV-1
Set-up: scale not given here
Details: Human immunodeficiency virus 1, HeLa, HeLa-CD4-LTR-β-gal cells, wild type virus; read-out: WTRVA activity level

Cc1c(C(=O)NCc2ccc(Cl)c(Oc3cc(Cl)cc(C#N)c3)c2F)[nH]c2ccccc12 [Example 39, N-({4-chloro-3-[(3-chloro-5-cyanophenyl)oxy]-2-fluorophenyl}methyl)-3-methyl-1H-indole-2-carboxamide]
IC50: < 10 nM

Cc1c(C(=O)NCc2ccc(Cl)c(Oc3cc(Cl)cc(C#N)c3)c2F)[nH]c2ccc(Cl)cc12 [Example 40, 5-chloro-N-({4-chloro-3-[(3-chloro-5-cyanophenyl)oxy]-2-fluorophenyl}methyl)-3-methyl-1H-indole-2-carboxamide]
IC50: 10 to 1000 nM

N#Cc1cc(Cl)cc(Oc2c(Cl)ccc(CNC(=O)c3cc4cc(F)ccc4[nH]3)c2F)c1 [Example 41, N-({4-chloro-3-[(3-chloro-5-cyanophenyl)oxy]-2-fluorophenyl}methyl)-5-fluoro-1H-indole-2-carboxamide]
IC50: 10 to 1000 nM

COc1ccc(C(=O)NCc2ccc(Cl)c(Oc3cc(Cl)cc(C#N)c3)c2F)cn1 [Example 42, N-({4-chloro-3-[(3-chloro-5-cyanophenyl)oxy]-2-fluorophenyl}methyl)-6-(methyloxy)-3-pyridinecarboxamide]
IC50: 10 to 1000 nM

N#Cc1cc(Cl)cc(Oc2c(Cl)ccc(CNC(=O)c3cc4ccc(OCc5ccccc5)cc4[nH]3)c2F)c1 [Example 43, N-({4-chloro-3-[(3-chloro-5-cyanophenyl)oxy]-2-fluorophenyl}methyl)-6-[(phenylmethyl)oxy]-1H-indole-2-carboxamide]
IC50: 10 to 1000 nM

N#Cc1cc(Cl)cc(Oc2c(Cl)ccc(CNC(=O)c3cc4c5c(ccc4[nH]3)N(C(N)=O)CC5)c2F)c1 [Example 44, N^2-({4-chloro-3-[(3-chloro-5-cyanophenyl)oxy]-2-fluorophenyl}methyl)-7,8-dihydropyrrolo[3,2-e]indole-2,6(3H)-dicarboxamide]
IC50: < 10 nM

Cn1c(C(=O)NCc2ccc(Cl)c(Oc3cc(Cl)cc(C#N)c3)c2F)cc2ccccc21 [Example 45, N-({4-chloro-3-[(3-chloro-5-cyanophenyl)oxy]-2-fluorophenyl}methyl)-1-methyl-1H-indole-2-carboxamide]
IC50: 10 to 1000 nM

COc1cc2cc(C(=O)NCc3ccc(Cl)c(Oc4cc(Cl)cc(C#N)c4)c3F)[nH]c2cn1 [Example 46, N-({4-chloro-3-[(3-chloro-5-cyanophenyl)oxy]-2-fluorophenyl}methyl)-5-(methyloxy)-1H-pyrrolo[2,3-c]pyridine-2-carboxamide trifluoroacetate]
IC50: < 10 nM

N#Cc1cc(Cl)cc(Oc2c(Cl)ccc(CNC(=O)c3cc4ccccc4o3)c2F)c1 [Example 47, N-({4-chloro-3-[(3-chloro-5-cyanophenyl)oxy]-2-fluorophenyl}methyl)-1-benzofuran-2-carboxamide trifluoroacetate]
IC50: 10 to 1000 nM

Cc1c(C(=O)NCc2ccc(Cl)c(Oc3cc(Cl)cc(C#N)c3)c2F)oc2ccccc12 [Example 48, N-({4-chloro-3-[(3-chloro-5-cyanophenyl)oxy]-2-fluorophenyl}methyl)-3-methyl-1-benzofuran-2-carboxamide trifluoroacetate]
IC50: 10 to 1000 nM

N#Cc1cc(Cl)cc(Oc2c(Cl)ccc(CNC(=O)c3cc4cc(Cl)ccc4o3)c2F)c1 [Example 49, 5-chloro-N-({4-chloro-3-[(3-chloro-5-cyanophenyl)oxy]-2-fluorophenyl}methyl)-1-benzofuran-2-carboxamide trifluoroacetate]
IC50: > 1000 nM

N#Cc1cc(Cl)cc(Oc2c(Cl)ccc(CNC(=O)c3cc4cc([N+](=O)[O-])ccc4o3)c2F)c1 [Example 50, N-({4-chloro-3-[(3-chloro-5-cyanophenyl)oxy]-2-fluorophenyl}methyl)-5-nitro-1-benzofuran-2-carboxamide trifluoroacetate]
IC50: 10 to 1000 nM

N#Cc1cc(Cl)cc(Oc2c(Cl)ccc(CNC(=O)c3cc4cc(Cl)ccc4s3)c2F)c1 [Example 51, 5-chloro-N-({4-chloro-3-[(3-chloro-5-cyanophenyl)oxy]-2-fluorophenyl}methyl)-1-benzothiophene-2-carboxamide trifluoroacetate]
IC50: > 1000 nM
